Reference: patent US20170368134A1, “PROTEASOME INHIBITORS FOR TREATING A DISORDER RELATED TO AN ACCUMULATION OF NON-DEGRADED ABNORMAL PROTEIN OR A CANCER” (UNIVERSITÉ D'AIX-MARSEILLE, priority 2015, published 2017)
Square brackets hold non-standard residues; d marks the D form. Peptide text beside a SMILES is read from it. * marks the point of attachment. Nva = CCC[C@H](N)C(=O)O; Cbz = O=C(OCc1ccccc1)*; CH2F = FC*

Assays:
progerin = assay: Western blot of progerin levels in HGPS fibroblasts; format: cell-based, human; conditions: HGPS fibroblasts; for progerin clearance / suppression of progerin accumulation compared with MG132: 10 μM, 48 h (FIG. 1C); for effect on MG132-induced progerin clearance (co-treatment with MG132): 48 h, added together with MG132; for progerin expression levels, inhibitor alone: alone at high doses
Protocol: HGPS fibroblasts (AG01972: person, AG11498: person) were obtained from the Coriell Cell Repository. Cells were cultured in Dulbecco's modified Eagle's medium (Life Technologies) supplemented with 15% fetal bovine serum (Life Technologies), 2 mM L-glutamine (Life Technologies) and 1× penicillin-streptomycin (Life Technologies) at 37° C. in a humidified atmosphere containing 5% CO2. […]
(§1) Total fibroblast proteins were extracted in 200 μL of NP40 Cell Lysis buffer (Invitrogen, Carlsbad, Calif.) containing Protease and Phosphatase Inhibitor Cocktail (Thermo Scientific). Alternatively, cells were lysed with urea (8 M urea, 5 mM dithiothreitol, 150 mM NaCl, 50 mM Tris-Cl pH 7.5, protease and phosphatase Inhibitor Cocktail (Thermo Scientific)). Cells were sonicated twice (30 sec each), incubated at 4° C. for 30 minutes and then centrifuged at 10,000 g for 10 minutes. Protein concentration was evaluated with the bicinchoninic acid technique (Pierce BCA Protein Assay Kit), absorbance at 562 nm is measured using nanodrop 1000 (Thermo Fisher Scientific Inc.) Equal amounts of proteins (40 μg) were loaded onto 10% Tis-Glycine gel (Criterion™ XT precast gel) using XT Tricine running Buffer (Biorad, USA). After electrophoresis, gels were electro transferred onto nitrocellulose membranes or Immobilon-FL polyvinylidene fluoride membranes (Millipore), blocked in Odyssey Blocking Buffer diluted 1:1 in PBS for 1 hour at room temperature, and incubated overnight at 4° C. or 2 hours at room temperature with various primary antibodies. Blots were washed with TBS-T buffer [20 mM tris (pH 7.4), 150 mM NaCl, and 0.05% Tween 20] and incubated with 1:10,000 IR-Dye 800-conjugated secondary donkey anti-goat or IR-Dye 700-conjugated secondary anti-mouse antibodies (LI-COR Biosciences) in Odyssey blocking buffer (LI-COR Biosciences). For IR-Dye 800 and IR-Dye 700 detection, an Odyssey Infrared Imaging System (LI-COR Biosciences) was used. GAPDH, α-tubulin or β-actin were used as a total cellular protein loading control.

proteasome = target: T1, proteasome (Homo sapiens, UniProt P28072+P28074+Q99436); assay: Proteasome-Glo cell-based proteasome activities (chymotrypsin-like, trypsin-like, caspase-like) in HGPS cells; conditions: HGPS cells treated with the autophagy inhibitor
T1 construct: The proteasome activities were determined in HGPS and control cells; endogenous in cells; host or cells: HGPS fibroblasts (AG01972, AG11498, 5968)
T1 sequence (P28074 60-263): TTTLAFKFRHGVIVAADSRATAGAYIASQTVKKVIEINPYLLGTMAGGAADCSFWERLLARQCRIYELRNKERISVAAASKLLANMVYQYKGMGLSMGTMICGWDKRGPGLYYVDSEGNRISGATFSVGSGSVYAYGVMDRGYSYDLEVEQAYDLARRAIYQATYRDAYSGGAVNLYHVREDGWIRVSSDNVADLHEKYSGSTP
T1 sequence (Q99436 44-277): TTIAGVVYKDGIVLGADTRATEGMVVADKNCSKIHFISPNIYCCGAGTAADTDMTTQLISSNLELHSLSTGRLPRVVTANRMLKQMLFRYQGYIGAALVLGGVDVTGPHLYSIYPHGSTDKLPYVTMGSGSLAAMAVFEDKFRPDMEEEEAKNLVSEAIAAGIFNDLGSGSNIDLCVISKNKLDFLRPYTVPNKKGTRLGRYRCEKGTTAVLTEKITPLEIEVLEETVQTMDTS
T1 sequence (P28072 1-239): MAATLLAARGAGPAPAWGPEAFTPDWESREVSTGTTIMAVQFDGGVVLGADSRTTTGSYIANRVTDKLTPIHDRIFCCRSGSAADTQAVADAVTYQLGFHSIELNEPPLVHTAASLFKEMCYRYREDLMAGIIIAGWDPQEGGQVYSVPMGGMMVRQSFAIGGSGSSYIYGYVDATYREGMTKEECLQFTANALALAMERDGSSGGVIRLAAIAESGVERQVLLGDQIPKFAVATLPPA
Protocol: The proteasome activities were determined in HGPS and control cells by using the Proteasome-Glo™ 3-Substrate Cell-Based Assay System (Promega) that allows to measure the chymotrypsin-like, trypsin-like or caspase-like protease activity associated with the proteasome complex in cultured cells. The Proteasome-Glo™ Cell-Based Reagents each contain a specific luminogenic proteasome substrate. These peptide substrates are Suc-LLVY amino luciferin (Succinyl-leucine-leucine-valine-tyro sine-amino luciferin), Z-LRR-amino luciferin (Z-leucine-arginine-arginine-aminoluciferin) and Z-nLPnLD-amino luciferin (Z-norleucine-proline-norleucine-aspartate-amino luciferin) for the chymotrypsin-like, trypsin-like and caspase-like activities, respectively. Cells (10,000 cells/well) were cultured in 100 μl/well in a 96-well plate at 37° C., 5% CO2. The plate was allowed to equilibrate to 22° C. before 100 μl/well of substrate and luciferin detection reagent was added. The contents of the wells were mixed at 700 rpm using a plate shaker for 2 minutes and incubated at room temperature for 10 minutes. Following cleavage by the proteasome, the substrate for luciferase (amino luciferin) is released, allowing the luciferase reaction to proceed and produce light. Luminescence is determined as relative light units (RLUs) using a GloMax-Multi Detection System: Luminometer (Promega, USA).

SRSF-1 = assay: Western blot of SRSF-1 in HGPS fibroblasts; format: cell-based, human; conditions: for SRSF-1 levels, autophagy inhibitor alone: HGPS fibroblasts, chloroquine 50 μM, bafilomycin A1 100 nM
Protocol: as §1

SMILES | progerin clearance / suppression of progerin accumulation compared with MG132 (progerin) | effect on MG132-induced progerin clearance (co-treatment with MG132) (progerin) | other results
CC(C)C[C@H](NC(=O)[C@H](CC(C)C)NC(=O)[C@H](CC(C)C)NC(=O)OCc1ccccc1)B(O)O [MG262, Z-Leu-Leu-Leu-B(OH)2] | less effective |  | 
CC(C)C[C@H](NC(=O)[C@H](Cc1ccccc1)NC(=O)c1cnccn1)B(O)O [bortezomib] | do not induce progerin clearance |  | 
CC[C@H](C)[C@H](NC(=O)[C@H](CCC(=O)OC)NC(=O)[C@@H](NC(=O)OCc1ccccc1)C(C)C)C(=O)N[C@@H](CC(=O)OC)C(=O)CF [caspase-6 inhibitor, Z-VEID-FMK] (Cbz-VE(OMe)ID(OMe)-CH2F) |  | progerin level remained below the HGPS control | 
CO/C1=C\C(C)=C\[C@@H](C)[C@@H](O)[C@@H](C)C/C(C)=C/C=C/[C@H](OC)[C@@H]([C@@H](C)[C@@H](O)[C@H](C)[C@@]2(O)C[C@@H](O)[C@H](C)[C@@H](C(C)C)O2)OC1=O [bafilomycin A1] |  | partially inhibited the effect of MG132 | progerin expression levels, inhibitor alone (progerin): reduced expression levels of progerin; three proteasome activities (proteasome): not modified; SRSF-1 levels, autophagy inhibitor alone (SRSF-1): decrease SRSF-1 levels
COC(=O)C[C@H](NC(=O)[C@H](C)NC(=O)[C@@H](NC(=O)OCc1ccccc1)C(C)C)C(=O)CF [pan-caspase inhibitor, Z-VAD-FMK] (Cbz-Val-Ala-Asp(OMe)-CH2F) |  | increase of progerin that slightly reaches the control levels | SRSF-1 protein expression, added during MG132 treatment (SRSF-1; HGPS cells, co-treatment with MG132): rescue of SRSF-1 protein expression
CCC(=C/[C@H](C)C/C=C/C(C)=C/[C@@H](C)C(=O)[C@@H](C)[C@H](O)[C@@H](C)C/C(C)=C/C(=O)O)/C=C/[C@@H]1OC(=O)C=C[C@@H]1C [leptomycin B] |  | does not inhibit MG132 induced progerin clearance | 
CCC[C@@H](C=O)NC(=O)[C@H](CC(C)C)NC(=O)[C@H](CC(C)C)NC(=O)OCc1ccccc1 [MG115, Z-Leu-Leu-Nva-H] (Cbz-Leu-Leu-[Nva]-aldehyde) | the same efficacy in suppressing progerin accumulation |  | 
CCN(CC)CCCC(C)Nc1ccnc2cc(Cl)ccc12 (stereo not drawn) [chloroquine] |  |  | progerin expression levels, inhibitor alone (progerin): reduced expression levels of progerin; three proteasome activities (proteasome): not modified; SRSF-1 levels, autophagy inhibitor alone (SRSF-1): decrease SRSF-1 levels
CC(C)C[C@H](NC(=O)[C@H](CCc1ccccc1)NC(=O)CN1CCOCC1)C(=O)N[C@@H](Cc1ccccc1)C(=O)N[C@@H](CC(C)C)C(=O)[C@@]1(C)CO1 [carfilzomib] | do not induce progerin clearance |  | 
